# Measurements from patent US4479951A, “1.4;3.6-Dianhydrohexitol nitrates substituted by purine bases, processes for their preparation and pharmaceutical compositions” (Dr. Willmar Schwabe GmbH & Co., priority 1980, dated 1984).
# System: mongrel dogs
# Assay: circulatory-pharmacological effectiveness on the narcotised dog, intravenous administration
# Format: in vivo
smiles,measurement,setting,value
"Nc1ncnc2c1ncn2[C@H]1CO[C@H]2[C@@H]1OC[C@@H]2O[N+](=O)[O-] [1c/2c, 5-(9-Adenyl)-5-desoxy-1.4;3.6-dianhydro-L-iditol 2-nitrate]",APdiast: diastolic aorta pressure,40 min after i.v. 1 mg/kg,81.0 mm.Hg
same,APsyst: systolic aorta pressure,40 min after i.v. 1 mg/kg,126.6 mm.Hg
same,"BFFem: blood flow in the A. femoralis, referred to 20 kg. body weight",40 min after i.v. 1 mg/kg,46.3 mL/min
same,HF: heart frequency,40 min after i.v. 1 mg/kg,120.7 min⁻¹
same,"HLL: heart capacity left, referred to 20 kg. body weight",40 min after i.v. 1 mg/kg,0.76 W
same,"HLR: heart capacity right, referred to 20 kg. body weight",40 min after i.v. 1 mg/kg,89.3 mW
same,"HZV: heart minute volume, referred to 20 kg. body weight",40 min after i.v. 1 mg/kg,3.72 L/min
same,LVEDP: end diastolic pressure in the left ventricle,40 min after i.v. 1 mg/kg,4.41 mm.Hg
same,PAP: average pressure in the A. pulmonalis,40 min after i.v. 1 mg/kg,14.1 ±1.8 mm.Hg
same,PRA: pressure in the right atrium,40 min after i.v. 1 mg/kg,3.37 mm.Hg
same,"SV: beat volume, referred to 20 kg. body weight",40 min after i.v. 1 mg/kg,32.7 mL
same,"WAP: pulmonalis resistance, referred to 20 kg. body weight",40 min after i.v. 1 mg/kg,0.35 U
same,"WFem: femoralis resistance, referred to 20 kg. body weight",40 min after i.v. 1 mg/kg,0.27 KU
same,"WTP: total peripheral resistance, referred to 20 kg. body weight",40 min after i.v. 1 mg/kg,3.34 U
same,dp/dt: rate of pressure increase in the left ventricle,40 min after i.v. 1 mg/kg,2137.5 mm.Hg/sec.
same,APdiast: diastolic aorta pressure,50 min after i.v. 1 mg/kg,83.4 mm.Hg
same,APsyst: systolic aorta pressure,50 min after i.v. 1 mg/kg,131.2 mm.Hg
same,"BFFem: blood flow in the A. femoralis, referred to 20 kg. body weight",50 min after i.v. 1 mg/kg,50.6 mL/min
same,HF: heart frequency,50 min after i.v. 1 mg/kg,118.7 min⁻¹
same,"HLL: heart capacity left, referred to 20 kg. body weight",50 min after i.v. 1 mg/kg,0.75 W
same,"HLR: heart capacity right, referred to 20 kg. body weight",50 min after i.v. 1 mg/kg,83.6 mW
same,"HZV: heart minute volume, referred to 20 kg. body weight",50 min after i.v. 1 mg/kg,3.55 L/min
same,LVEDP: end diastolic pressure in the left ventricle,50 min after i.v. 1 mg/kg,4.69 mm.Hg
same,PAP: average pressure in the A. pulmonalis,50 min after i.v. 1 mg/kg,13.9 ±1.9 mm.Hg
same,PRA: pressure in the right atrium,50 min after i.v. 1 mg/kg,3.43 mm.Hg
same,"SV: beat volume, referred to 20 kg. body weight",50 min after i.v. 1 mg/kg,32.0 mL
same,"WAP: pulmonalis resistance, referred to 20 kg. body weight",50 min after i.v. 1 mg/kg,0.34 U
same,"WFem: femoralis resistance, referred to 20 kg. body weight",50 min after i.v. 1 mg/kg,0.26 KU
same,"WTP: total peripheral resistance, referred to 20 kg. body weight",50 min after i.v. 1 mg/kg,3.61 U
same,dp/dt: rate of pressure increase in the left ventricle,50 min after i.v. 1 mg/kg,2118.5 mm.Hg/sec.
same,APdiast: diastolic aorta pressure,60 min after i.v. 1 mg/kg,87.6 mm.Hg
same,APsyst: systolic aorta pressure,60 min after i.v. 1 mg/kg,133.1 mm.Hg
same,"BFFem: blood flow in the A. femoralis, referred to 20 kg. body weight",60 min after i.v. 1 mg/kg,50.4 mL/min
same,HF: heart frequency,60 min after i.v. 1 mg/kg,114.2 min⁻¹
same,"HLL: heart capacity left, referred to 20 kg. body weight",60 min after i.v. 1 mg/kg,0.79 W
same,"HLR: heart capacity right, referred to 20 kg. body weight",60 min after i.v. 1 mg/kg,89.5 mW
same,"HZV: heart minute volume, referred to 20 kg. body weight",60 min after i.v. 1 mg/kg,3.73 L/min
same,LVEDP: end diastolic pressure in the left ventricle,60 min after i.v. 1 mg/kg,4.78 mm.Hg
same,PAP: average pressure in the A. pulmonalis,60 min after i.v. 1 mg/kg,14.1 ±2.0 mm.Hg
same,PRA: pressure in the right atrium,60 min after i.v. 1 mg/kg,3.37 mm.Hg
same,"SV: beat volume, referred to 20 kg. body weight",60 min after i.v. 1 mg/kg,35.6 mL
same,"WAP: pulmonalis resistance, referred to 20 kg. body weight",60 min after i.v. 1 mg/kg,0.33 U
same,"WFem: femoralis resistance, referred to 20 kg. body weight",60 min after i.v. 1 mg/kg,0.26 KU
same,"WTP: total peripheral resistance, referred to 20 kg. body weight",60 min after i.v. 1 mg/kg,3.46 U
same,dp/dt: rate of pressure increase in the left ventricle,60 min after i.v. 1 mg/kg,2118.5 mm.Hg/sec.
same,APdiast: diastolic aorta pressure,90 min after i.v. 1 mg/kg,87.6 mm.Hg
same,APsyst: systolic aorta pressure,90 min after i.v. 1 mg/kg,136.9 mm.Hg
same,"BFFem: blood flow in the A. femoralis, referred to 20 kg. body weight",90 min after i.v. 1 mg/kg,50.8 mL/min
same,HF: heart frequency,90 min after i.v. 1 mg/kg,107.5 min⁻¹
same,"HLL: heart capacity left, referred to 20 kg. body weight",90 min after i.v. 1 mg/kg,0.82 W
same,"HLR: heart capacity right, referred to 20 kg. body weight",90 min after i.v. 1 mg/kg,91.5 mW
same,"HZV: heart minute volume, referred to 20 kg. body weight",90 min after i.v. 1 mg/kg,3.77 L/min
same,LVEDP: end diastolic pressure in the left ventricle,90 min after i.v. 1 mg/kg,5.25 mm.Hg
same,PAP: average pressure in the A. pulmonalis,90 min after i.v. 1 mg/kg,14.5 ±2.1 mm.Hg
same,PRA: pressure in the right atrium,90 min after i.v. 1 mg/kg,3.85 mm.Hg
same,"SV: beat volume, referred to 20 kg. body weight",90 min after i.v. 1 mg/kg,37.1 mL
same,"WAP: pulmonalis resistance, referred to 20 kg. body weight",90 min after i.v. 1 mg/kg,0.32 U
same,"WFem: femoralis resistance, referred to 20 kg. body weight",90 min after i.v. 1 mg/kg,0.27 KU
same,"WTP: total peripheral resistance, referred to 20 kg. body weight",90 min after i.v. 1 mg/kg,3.59 U
same,dp/dt: rate of pressure increase in the left ventricle,90 min after i.v. 1 mg/kg,2081.2 mm.Hg/sec.
same,APdiast: diastolic aorta pressure,120 min after i.v. 1 mg/kg,93.7 mm.Hg
same,APsyst: systolic aorta pressure,120 min after i.v. 1 mg/kg,143.4 mm.Hg
same,"BFFem: blood flow in the A. femoralis, referred to 20 kg. body weight",120 min after i.v. 1 mg/kg,58.6 mL/min
same,HF: heart frequency,120 min after i.v. 1 mg/kg,98.7 min⁻¹
same,"HLL: heart capacity left, referred to 20 kg. body weight",120 min after i.v. 1 mg/kg,0.89 W
same,"HLR: heart capacity right, referred to 20 kg. body weight",120 min after i.v. 1 mg/kg,98.7 mW
same,"HZV: heart minute volume, referred to 20 kg. body weight",120 min after i.v. 1 mg/kg,3.85 L/min
same,LVEDP: end diastolic pressure in the left ventricle,120 min after i.v. 1 mg/kg,6.37 mm.Hg
same,PAP: average pressure in the A. pulmonalis,120 min after i.v. 1 mg/kg,15.1 ±2.3 mm.Hg
same,PRA: pressure in the right atrium,120 min after i.v. 1 mg/kg,3.94 mm.Hg
same,"SV: beat volume, referred to 20 kg. body weight",120 min after i.v. 1 mg/kg,40.0 mL
same,"WAP: pulmonalis resistance, referred to 20 kg. body weight",120 min after i.v. 1 mg/kg,0.30 U
same,"WFem: femoralis resistance, referred to 20 kg. body weight",120 min after i.v. 1 mg/kg,0.25 KU
same,"WTP: total peripheral resistance, referred to 20 kg. body weight",120 min after i.v. 1 mg/kg,3.72 U
same,dp/dt: rate of pressure increase in the left ventricle,120 min after i.v. 1 mg/kg,2043.7 mm.Hg/sec.
same,APdiast: diastolic aorta pressure,150 min after i.v. 1 mg/kg,94.7 mm.Hg
same,APsyst: systolic aorta pressure,150 min after i.v. 1 mg/kg,147.2 mm.Hg
same,"BFFem: blood flow in the A. femoralis, referred to 20 kg. body weight",150 min after i.v. 1 mg/kg,58.2 mL/min
same,HF: heart frequency,150 min after i.v. 1 mg/kg,97.5 min⁻¹
same,"HLL: heart capacity left, referred to 20 kg. body weight",150 min after i.v. 1 mg/kg,0.91 W
same,"HLR: heart capacity right, referred to 20 kg. body weight",150 min after i.v. 1 mg/kg,98.0 mW
same,"HZV: heart minute volume, referred to 20 kg. body weight",150 min after i.v. 1 mg/kg,3.89 L/min
same,LVEDP: end diastolic pressure in the left ventricle,150 min after i.v. 1 mg/kg,6.97 mm.Hg
same,PAP: average pressure in the A. pulmonalis,150 min after i.v. 1 mg/kg,15.1 ±1.5 mm.Hg
same,PRA: pressure in the right atrium,150 min after i.v. 1 mg/kg,4.03 mm.Hg
same,"SV: beat volume, referred to 20 kg. body weight",150 min after i.v. 1 mg/kg,41.0 mL
same,"WAP: pulmonalis resistance, referred to 20 kg. body weight",150 min after i.v. 1 mg/kg,0.27 U
same,"WFem: femoralis resistance, referred to 20 kg. body weight",150 min after i.v. 1 mg/kg,0.26 KU
same,"WTP: total peripheral resistance, referred to 20 kg. body weight",150 min after i.v. 1 mg/kg,3.73 U
same,dp/dt: rate of pressure increase in the left ventricle,150 min after i.v. 1 mg/kg,1950.0 mm.Hg/sec.
same,APdiast: diastolic aorta pressure,180 min after i.v. 1 mg/kg,91.9 mm.Hg
same,APsyst: systolic aorta pressure,180 min after i.v. 1 mg/kg,143.4 mm.Hg
same,"BFFem: blood flow in the A. femoralis, referred to 20 kg. body weight",180 min after i.v. 1 mg/kg,59.4 mL/min
same,HF: heart frequency,180 min after i.v. 1 mg/kg,95.5 min⁻¹
same,"HLL: heart capacity left, referred to 20 kg. body weight",180 min after i.v. 1 mg/kg,0.91 W
same,"HLR: heart capacity right, referred to 20 kg. body weight",180 min after i.v. 1 mg/kg,98.5 mW
same,"HZV: heart minute volume, referred to 20 kg. body weight",180 min after i.v. 1 mg/kg,4.03 L/min
same,LVEDP: end diastolic pressure in the left ventricle,180 min after i.v. 1 mg/kg,7.69 mm.Hg
same,PAP: average pressure in the A. pulmonalis,180 min after i.v. 1 mg/kg,14.9 ±1.3 mm.Hg
same,PRA: pressure in the right atrium,180 min after i.v. 1 mg/kg,4.12 mm.Hg
same,"SV: beat volume, referred to 20 kg. body weight",180 min after i.v. 1 mg/kg,42.6 mL
same,"WAP: pulmonalis resistance, referred to 20 kg. body weight",180 min after i.v. 1 mg/kg,0.24 U
same,"WFem: femoralis resistance, referred to 20 kg. body weight",180 min after i.v. 1 mg/kg,0.24 KU
same,"WTP: total peripheral resistance, referred to 20 kg. body weight",180 min after i.v. 1 mg/kg,3.51 U
same,dp/dt: rate of pressure increase in the left ventricle,180 min after i.v. 1 mg/kg,1593.7 mm.Hg/sec.
same,APdiast: diastolic aorta pressure,before i.v. 1 mg/kg (v),88.1 mm.Hg
same,APsyst: systolic aorta pressure,before i.v. 1 mg/kg (v),150.9 mm.Hg
same,"BFFem: blood flow in the A. femoralis, referred to 20 kg. body weight",before i.v. 1 mg/kg (v),53.4 mL/min
same,HF: heart frequency,before i.v. 1 mg/kg (v),97.5 min⁻¹
same,"HLL: heart capacity left, referred to 20 kg. body weight",before i.v. 1 mg/kg (v),0.83 W
same,"HLR: heart capacity right, referred to 20 kg. body weight",before i.v. 1 mg/kg (v),96.0 mW
same,"HZV: heart minute volume, referred to 20 kg. body weight",before i.v. 1 mg/kg (v),3.61 L/min
same,LVEDP: end diastolic pressure in the left ventricle,before i.v. 1 mg/kg (v),5.53 mm.Hg
same,PAP: average pressure in the A. pulmonalis,before i.v. 1 mg/kg (v),15.8 ±1.4 mm.Hg
same,PRA: pressure in the right atrium,before i.v. 1 mg/kg (v),3.94 mm.Hg
same,"SV: beat volume, referred to 20 kg. body weight",before i.v. 1 mg/kg (v),38.3 mL
same,"WAP: pulmonalis resistance, referred to 20 kg. body weight",before i.v. 1 mg/kg (v),0.38 U
same,"WFem: femoralis resistance, referred to 20 kg. body weight",before i.v. 1 mg/kg (v),0.28 KU
same,"WTP: total peripheral resistance, referred to 20 kg. body weight",before i.v. 1 mg/kg (v),3.94 U
same,dp/dt: rate of pressure increase in the left ventricle,before i.v. 1 mg/kg (v),2081.2 mm.Hg/sec.
